{"source": "paper PMC3501149", "about": "(ACS Chemical Biology, 2012)", "target": "firefly luciferase (Fluc) (Photinus pyralis, UniProt P08659)", "sequence (P08659 whole entry)": "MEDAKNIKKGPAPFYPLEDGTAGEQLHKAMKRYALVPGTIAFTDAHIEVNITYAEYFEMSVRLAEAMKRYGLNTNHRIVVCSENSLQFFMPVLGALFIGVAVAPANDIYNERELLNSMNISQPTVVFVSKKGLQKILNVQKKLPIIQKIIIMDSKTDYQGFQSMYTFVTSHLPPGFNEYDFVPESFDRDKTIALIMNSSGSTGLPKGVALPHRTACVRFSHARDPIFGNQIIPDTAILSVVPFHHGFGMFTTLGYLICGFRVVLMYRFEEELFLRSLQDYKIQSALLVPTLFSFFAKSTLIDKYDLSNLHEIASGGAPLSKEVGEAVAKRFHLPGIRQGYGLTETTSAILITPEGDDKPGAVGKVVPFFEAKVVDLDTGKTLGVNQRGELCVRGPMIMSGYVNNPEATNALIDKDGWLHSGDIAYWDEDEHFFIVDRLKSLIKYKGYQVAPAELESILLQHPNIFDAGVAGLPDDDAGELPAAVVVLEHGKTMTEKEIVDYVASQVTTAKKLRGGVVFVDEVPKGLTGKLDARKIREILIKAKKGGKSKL", "assay": "luminescence emission spectrum", "format": "biochemical"}
{"smiles": "O=C(O)[C@H]1CSC(c2nc3ccc(O)cc3s2)=N1", "note": "[D-luciferin]", "values": [{"measurement": "luminescence emission spectrum", "value": "Fluc (D-luciferin)"}]}
